# Experimental data published in patent US20040248809A1, “Use of antagonists of the bradykinin B2 receptor for the treatment of osteoarthrosis” (Aventis Pharma Deutschland GmbH, priority 2003, published 2004).
# System: MMP3 expression in the chondrosarcoma cell line SW1353
# Assay: MMP-3 release from SW cells (MMP3 ELISA of cell culture supernatant)
# Type: cell-based
# Conditions: for MMP-3 release MW (OD 450 nm) / Relative values based on starting value: SW cells; for Relative values based on starting value: IL1α alone = 100
# Method: For the analysis of the disease-modifying action of HOE140 in a cell culture model relevant to cartilage, the MMP3 expression was analyzed in the chondrosarcoma cell line SW1353 (ATCC: HTB 94). For the experiments, SW1353 cells were cultured under standard conditions (37° C., 5% CO2) in DMEM-Glutamax with 10% of fetal calf serum (FCS) in plastic culture bottles. After detrypsinization of the cells, 50,000 cells were inoculated per well of a 96-well flat-bottom plate in medium without FCS and preincubated with the compound HOE140 in an incubator. After one hour, the cells were stimulated by addition of human IL1-β (0.1 ng/mL, Roche) in a total volume of 300 μL. After incubation for 24 hours under standard conditions, the cell culture supernatant was taken off, centrifuged for 5 minutes and frozen at −20° C. until further analysis. The MMP3 expression in the cell culture supernatants was then analyzed by means of a commercial MMP3 ELISA test system (Amersham) according to the instructions of the manufacturer. In parallel to this, a WST cytotoxicity test was carried out with the remaining cells. For this the commercial test system of Roche was used and the measurement was carried out according to the instructions of the >manufacturer's protocol. […] Bradykinin increases the MMP3 release by more than 30%.
# [1] = IL1α + bradykinin (0.1 μM) + 0.05 μM HOE140
# [2] = IL1α + bradykinin (0.1 μM) + 0.1 μM HOE140
# [3] = IL1α + bradykinin (0.1 μM) + 0.5 μM HOE140
# [4] = IL1α + bradykinin (0.1 μM) + 1 μM HOE140
substance,measurement,setting,value
"D-arginyl-L-arginyl-L-prolyl-L-prolylglycyl-3-(2-thienyl)-L-alanyl-L-seryl-(3R)-1,2,3,4-tetrahydro-3-isoquinolinecarbonyl-(2S,3aS,7aS)-octahydro-1H-indole-2-carbonyl-L-arginine [HOE140]",inhibition of the bradykinin-increased release of MMP3 (in words),"SW1353 cells, IL1 + bradykinin",inhibited by HOE140 in a dose-dependent manner
same,MMP-3 release MW (OD 450 nm),[1],458 OD 450 nm
same,Relative values based on starting value,[1],139.6
same,MMP-3 release MW (OD 450 nm),[2],371 OD 450 nm
same,Relative values based on starting value,[2],113.1
same,MMP-3 release MW (OD 450 nm),[3],309 OD 450 nm
same,Relative values based on starting value,[3],94.2
same,MMP-3 release MW (OD 450 nm),[4],306 OD 450 nm
same,Relative values based on starting value,[4],93.3
